Assay results reported in patent publication US20260131009A1, “BIFUNCTIONAL PI3K-ALPHA INHIBITORS AND USES THEREOF” (Relay Therapeutics, Inc., priority 2021, published 2026).

Columns and labels:
PI3Kα = PI3Kα (Homo sapiens, UniProt P42336, H1047R); experiment: ADP-Glo IC50 assay; type: biochemical; conditions: class symbols; key not given
MCF10A = MCF10A IC50 assay; type: cell-based; conditions: Homo sapiens, MCF-10A; class symbols; key not given
Summary of the method: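 MCF10A cells overexpressing hotspot PIK3CA mutations were seeded at 5,000 per well in supplemented DMEM/F12 and adhered overnight (37 °C, 5% CO₂). Compounds were added acoustically as 12-dose 1:3 series, in duplicate, for 2 hours. Cells were lysed 60 min, then incubated 4 hours at room temperature with CisBio phospho-AKT (Ser473) HTRF antibodies and read on an Envision 2105. IC₅₀ for AKT phosphorylation came from Genedata software and was reported as binned categories.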

PI3Kα, sequence (P42336 whole entry H1047R): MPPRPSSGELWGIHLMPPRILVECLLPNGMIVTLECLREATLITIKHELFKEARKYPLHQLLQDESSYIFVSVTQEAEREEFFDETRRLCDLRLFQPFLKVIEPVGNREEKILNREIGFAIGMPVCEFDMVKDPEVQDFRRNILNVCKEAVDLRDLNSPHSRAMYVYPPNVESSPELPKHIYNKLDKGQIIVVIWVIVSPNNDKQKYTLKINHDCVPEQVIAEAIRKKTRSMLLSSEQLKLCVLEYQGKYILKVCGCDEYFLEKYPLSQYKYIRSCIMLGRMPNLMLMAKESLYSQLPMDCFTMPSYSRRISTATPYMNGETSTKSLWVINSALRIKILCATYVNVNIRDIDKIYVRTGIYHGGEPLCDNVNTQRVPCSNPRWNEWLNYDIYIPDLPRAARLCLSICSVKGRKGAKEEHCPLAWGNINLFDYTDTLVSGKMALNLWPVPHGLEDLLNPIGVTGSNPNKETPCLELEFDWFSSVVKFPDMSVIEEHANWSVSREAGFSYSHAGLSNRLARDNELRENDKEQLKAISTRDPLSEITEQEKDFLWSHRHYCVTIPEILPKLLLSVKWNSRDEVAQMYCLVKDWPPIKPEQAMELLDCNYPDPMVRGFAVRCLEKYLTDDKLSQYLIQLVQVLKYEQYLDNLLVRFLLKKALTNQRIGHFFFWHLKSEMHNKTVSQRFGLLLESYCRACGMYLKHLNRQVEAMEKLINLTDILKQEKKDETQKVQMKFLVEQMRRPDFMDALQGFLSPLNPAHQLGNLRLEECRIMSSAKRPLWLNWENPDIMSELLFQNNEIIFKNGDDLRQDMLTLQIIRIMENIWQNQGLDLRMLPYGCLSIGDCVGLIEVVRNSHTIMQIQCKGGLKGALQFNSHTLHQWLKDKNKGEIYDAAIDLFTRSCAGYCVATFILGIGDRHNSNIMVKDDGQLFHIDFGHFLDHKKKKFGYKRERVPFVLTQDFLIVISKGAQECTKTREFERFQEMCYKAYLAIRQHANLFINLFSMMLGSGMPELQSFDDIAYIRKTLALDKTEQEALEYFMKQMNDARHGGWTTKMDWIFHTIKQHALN
PI3Kα, sequence (P27986 whole entry partner): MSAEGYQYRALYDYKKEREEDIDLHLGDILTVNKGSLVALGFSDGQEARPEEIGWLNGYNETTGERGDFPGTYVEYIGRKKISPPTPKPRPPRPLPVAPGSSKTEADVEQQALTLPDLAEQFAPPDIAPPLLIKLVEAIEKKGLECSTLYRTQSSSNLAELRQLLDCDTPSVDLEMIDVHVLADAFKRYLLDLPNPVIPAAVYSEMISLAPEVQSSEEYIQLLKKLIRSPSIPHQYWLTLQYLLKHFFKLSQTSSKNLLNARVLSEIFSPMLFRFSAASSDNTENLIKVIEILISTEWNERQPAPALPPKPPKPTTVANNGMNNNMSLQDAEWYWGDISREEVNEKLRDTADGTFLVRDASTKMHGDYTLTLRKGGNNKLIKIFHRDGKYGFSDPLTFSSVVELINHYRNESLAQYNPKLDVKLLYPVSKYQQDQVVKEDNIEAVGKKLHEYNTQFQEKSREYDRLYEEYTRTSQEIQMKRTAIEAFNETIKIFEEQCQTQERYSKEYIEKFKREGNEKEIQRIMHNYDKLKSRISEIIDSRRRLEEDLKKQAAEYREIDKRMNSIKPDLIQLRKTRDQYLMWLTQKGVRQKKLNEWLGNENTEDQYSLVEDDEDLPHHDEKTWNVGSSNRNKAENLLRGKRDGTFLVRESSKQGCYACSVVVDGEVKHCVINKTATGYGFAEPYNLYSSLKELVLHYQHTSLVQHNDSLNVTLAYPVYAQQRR

Structure (SMILES) | IC50 (PI3Kα) | IC50 (MCF10A)
Cc1ccccc1Nc1ncc(C(=O)NCCCCCCCCCC(=O)O)cc1NC(=O)c1csc2ccccc12 [Example I-25] | < 100 nM | 1000 to 5000 nM
CCCCCCCCCCCCNC(=O)c1cnc(Nc2ccccc2C)c(NC(=O)c2csc3ccccc23)c1 [Example I-28] | 1000 to 10000 nM | 10000 to 36000 nM
Cc1ccccc1Nc1ncc(C(=O)NCCCCCNc2cccc3c2C(=O)N(C2CCC(=O)NC2=O)C3=O)cc1NC(=O)c1csc2ccccc12 (stereo not shown) [Example I-22] | 100 to 500 nM | 10000 to 36000 nM
Cc1ccccc1Nc1ncc(C(=O)NCCCCCCCCCNC(=O)c2ccc3c(c2)CN(C2CCC(=O)NC2=O)C3=O)cc1NC(=O)c1csc2ccccc12 (stereo not shown) [Example I-2] | 500 to 1000 nM | 10000 to 36000 nM
Cc1ccccc1Nc1ncc(C(=O)NCCCCCCCC(=O)N[C@H](C(=O)N2C[C@H](O)C[C@H]2C(=O)N[C@@H](C)c2ccc(-c3scnc3C)cc2)C(C)(C)C)cc1NC(=O)c1csc2ccccc12 [Example I-8] | 100 to 500 nM | 10000 to 36000 nM
Cc1ccccc1Nc1ncc(C(=O)NCCCCCCCNC(=O)c2ccc3c(c2)CN(C2CCC(=O)NC2=O)C3=O)cc1NC(=O)c1csc2ccccc12 (stereo not shown) [Example I-5] | 100 to 500 nM | 10000 to 36000 nM
Cc1ccccc1Nc1ncc(C(=O)NCCCCCCCCCNc2ccc3c(c2)C(=O)N(C2CCC(=O)NC2=O)C3=O)cc1NC(=O)c1csc2ccccc12 (stereo not shown) [Example I-12] | 100 to 500 nM | 10000 to 36000 nM
O=C(O)CCCCCCCCCNC(=O)c1cnc(Nc2cc(F)ccc2Cl)c(NC(=O)c2csc3ccccc23)c1 [Example I-72] | < 100 nM | 10000 to 36000 nM
Cc1ccccc1Nc1ncc(C(=O)NCCCCCCCC(=O)NCc2ccc3c(c2)CN(C2CCC(=O)NC2=O)C3=O)cc1NC(=O)c1csc2ccccc12 (stereo not shown) [Example I-6] | 100 to 500 nM | 10000 to 36000 nM
Cc1ccccc1Nc1ncc(C(=O)NCCCCCNc2ccc3c(c2)C(=O)N(C2CCC(=O)NC2=O)C3=O)cc1NC(=O)c1csc2ccccc12 (stereo not shown) [Example I-17] | < 100 nM | 5000 to 10000 nM
Cc1ccccc1Nc1ncc(C(=O)NCC#Cc2ccc3c(c2)CN(C2CCC(=O)NC2=O)C3=O)cc1NC(=O)c1csc2ccccc12 (stereo not shown) [Example I-53] | < 100 nM | < 1000 nM
Cc1ccccc1Nc1ncc(C(=O)NCCOCCOCCOCCOCCOCCC(=O)N[C@H](C(=O)N2C[C@H](O)C[C@H]2C(=O)N[C@@H](C)c2ccc(-c3scnc3C)cc2)C(C)(C)C)cc1NC(=O)c1csc2ccccc12 [Example I-11] | 1000 to 10000 nM | 10000 to 36000 nM
Cc1ccccc1Nc1ncc(C(=O)NCCCCCCCCCC(=O)N[C@H](C(=O)N2C[C@H](O)C[C@H]2C(=O)N[C@@H](C)c2ccc(-c3scnc3C)cc2)C(C)(C)C)cc1NC(=O)c1csc2ccccc12 [Example 1-7] | 100 to 500 nM | 10000 to 36000 nM
Cc1ccccc1Nc1ncc(C(=O)NCCCCCCCCCC(N)=O)cc1NC(=O)c1csc2ccccc12 [Example I-24] | < 100 nM | 1000 to 5000 nM
Cc1cc([C@H](C)Nc2ccccc2C(=O)O)c2oc(N3CCN(C(=O)CCOCCNc4ccc5c(c4)C(=O)N(C4CCC(=O)NC4=O)C5=O)CC3)cc(=O)c2c1 (stereo partly shown) [Example I-138] | 1000 to 10000 nM | –
Cc1ncsc1-c1ccc(CNC(=O)[C@@H]2C[C@@H](O)CN2C(=O)[C@@H](NC(=O)CCCCCCCCCNC(=O)c2cnc(Nc3cc(F)ccc3Cl)c(NC(=O)c3csc4ccccc34)c2)C(C)(C)C)cc1 [Example I-45] | 100 to 500 nM | –
Cc1cc([C@H](C)Nc2ccccc2C(=O)O)c2oc(N3CCN(C(=O)CCCCCCNc4ccc5c(c4)C(=O)N(C4CCC(=O)NC4=O)C5=O)CC3)cc(=O)c2c1 (stereo partly shown) [Example I-129] | 1000 to 10000 nM | –
Cc1ccccc1Nc1ncc(C(=O)NCCCNC(=O)c2ccc3c(c2)CN(C2CCC(=O)NC2=O)C3=O)cc1NC(=O)c1csc2ccccc12 (stereo not shown) [Example I-61] | 100 to 500 nM | –
O=C1CCC(N2C(=O)c3ccc(NCCCCCNC(=O)c4cnc(Nc5cc(F)ccc5Cl)c(NC(=O)c5csc6ccccc56)c4)cc3C2=O)C(=O)N1 (stereo not shown) [Example I-63] | 100 to 500 nM | –
Cc1cc([C@@H](C)Nc2ccccc2C(=O)O)c2oc(N3CCN(C(=O)CCCCCCCNc4cccc5c4C(=O)N(C4CCC(=O)NC4=O)C5=O)CC3)cc(=O)c2c1 (stereo partly shown) [Example I-143] | 1000 to 10000 nM | –
Cc1ccccc1Nc1ncc(C(=O)NCCOCCOCCOCCOCCOCCOCCC(=O)N[C@H](C(=O)N2C[C@H](O)C[C@H]2C(=O)N[C@@H](C)c2ccc(-c3scnc3C)cc2)C(C)(C)C)cc1NC(=O)c1csc2ccccc12 [Example I-33] | 1000 to 10000 nM | –
O=C1CCC(N2Cc3cc(C#CCNC(=O)c4cnc(Nc5cc(F)ccc5Cl)c(NC(=O)c5csc6ccccc56)c4)ccc3C2=O)C(=O)N1 (stereo not shown) [Example I-95] | < 100 nM | –
NC(=O)CCCCCCCCCNC(=O)c1cc(NC(=O)c2cc(F)cc(C(F)(F)F)c2)c2c(c1)C(=O)N[C@H]2c1cc(F)ccc1Cl [Example I-79] | 1000 to 10000 nM | –
Cc1ccccc1Nc1ncc(C(=O)NCCCCCCCCNc2ccc3c(c2)C(=O)N(C2CCC(=O)NC2=O)C3=O)cc1NC(=O)c1csc2ccccc12 (stereo not shown) [Example I-16] | 100 to 500 nM | –
Cc1ccccc1Nc1ncc(C(=O)NCCCCCC(=O)NCc2ccc3c(c2)CN(C2CCC(=O)NC2=O)C3=O)cc1NC(=O)c1csc2ccccc12 (stereo not shown) [Example I-9] | 100 to 500 nM | 10000 to 36000 nM
Cc1ccccc1Nc1ncc(C(=O)NCCCCNc2cccc3c2C(=O)N(C2CCC(=O)NC2=O)C3=O)cc1NC(=O)c1csc2ccccc12 (stereo not shown) [Example I-49] | 100 to 500 nM | –
O=C1CCC(N2Cc3cc(C#CCNC(=O)c4cc(NC(=O)c5cc(F)cc(C(F)(F)F)c5)c5c(c4)C(=O)N[C@H]5c4cc(F)ccc4Cl)ccc3C2=O)C(=O)N1 (stereo partly shown) [Example I-110] | < 100 nM | –
O=C1CCC(N2Cc3cc(C(=O)NCCCCCCCCCNC(=O)c4cc(NC(=O)c5cccc(F)c5)c5c(c4)C(=O)N[C@H]5c4cc(F)ccc4Cl)ccc3C2=O)C(=O)N1 (stereo partly shown) [Example I-160] | 100 to 500 nM | –
Cc1ccccc1Nc1ncc(C(=O)NCCCCCCCCCNc2cccc3c2C(=O)N(C2CCC(=O)NC2=O)C3=O)cc1NC(=O)c1csc2ccccc12 (stereo not shown) [Example I-31] | 100 to 500 nM | 10000 to 36000 nM

Further lines, with some results ahead:

IC50 (PI3Kα) | Structure (SMILES) | IC50 (MCF10A)
100 to 500 nM | Cc1cc(Br)c2oc(N3CCN(C(=O)CCCCCCCNC(=O)c4cnc(Nc5ccccc5C)c(NC(=O)c5csc6ccccc56)c4)CC3)cc(=O)c2c1 [Example I-87] | < 1000 nM
1000 to 10000 nM | Cc1ccccc1Nc1ncc(C(=O)NCCOCCOCCOCCOCCC(=O)N[C@H](C(=O)N2C[C@H](O)C[C@H]2C(=O)N[C@@H](C)c2ccc(-c3scnc3C)cc2)C(C)(C)C)cc1NC(=O)c1csc2ccccc12 [Example I-13] | 10000 to 36000 nM
100 to 500 nM | Cc1ccccc1Nc1ncc(C(=O)NCCCCCCCNc2ccc3c(c2)C(=O)N(C2CCC(=O)NC2=O)C3=O)cc1NC(=O)c1csc2ccccc12 (stereo not shown) [Example I-39] | 10000 to 36000 nM
100 to 500 nM | Cc1cc(Br)c2oc(N3CCN(C(=O)CCCCCCCCNC(=O)c4cnc(Nc5ccccc5C)c(NC(=O)c5csc6ccccc56)c4)CC3)cc(=O)c2c1 [Example I-78] | 10000 to 36000 nM
< 100 nM | O=C1CCC(N2Cc3cc(C(=O)NCCCCCCCCCNC(=O)c4cc(NC(=O)c5cc(F)cc(C(F)(F)F)c5)c5c(c4)C(=O)N[C@H]5c4cc(F)ccc4Cl)ccc3C2=O)C(=O)N1 (stereo partly shown) [Example I-67] | 10000 to 36000 nM
100 to 500 nM | Cc1ccccc1Nc1ncc(C(=O)NCCCCCCCCCC(=O)N[C@H](C(=O)N2C[C@H](O)C[C@H]2C(=O)NCc2ccc(-c3scnc3C)cc2)C(C)(C)C)cc1NC(=O)c1csc2ccccc12 [Example I-10] | 10000 to 36000 nM
100 to 500 nM | Cc1ccccc1Nc1ncc(C(=O)NCCCCCNC(=O)c2ccc3c(c2)CN(C2CCC(=O)NC2=O)C3=O)cc1NC(=O)c1csc2ccccc12 (stereo not shown) [Example I-1] | 10000 to 36000 nM
100 to 500 nM | Cc1ccccc1Nc1ncc(C(=O)NCCCCCCCCCC(=O)NCc2ccc3c(c2)CN(C2CCC(=O)NC2=O)C3=O)cc1NC(=O)c1csc2ccccc12 (stereo not shown) [Example I-3] | 10000 to 36000 nM
< 100 nM | Cc1ccccc1Nc1ncc(C(=O)NCCCCNc2ccc3c(c2)C(=O)N(C2CCC(=O)NC2=O)C3=O)cc1NC(=O)c1csc2ccccc12 (stereo not shown) [Example I-54] | 10000 to 36000 nM
1000 to 10000 nM | Cc1ccccc1Nc1ncc(C(=O)NCCOCCOCCOCCC(=O)N[C@H](C(=O)N2C[C@H](O)C[C@H]2C(=O)N[C@@H](C)c2ccc(-c3scnc3C)cc2)C(C)(C)C)cc1NC(=O)c1csc2ccccc12 [Example I-4] | 10000 to 36000 nM
1000 to 10000 nM | Cc1cc([C@H](C)Nc2ccccc2C(=O)O)c2oc(N3CCN(C(=O)CCCCCNc4ccc5c(c4)C(=O)N(C4CCC(=O)NC4=O)C5=O)CC3)cc(=O)c2c1 (stereo partly shown) [Example I-128] | –
100 to 500 nM | Cc1ccccc1Nc1ncc(C(=O)NCCCCCC(=O)N[C@H](C(=O)N2C[C@H](O)C[C@H]2C(=O)NCc2ccc(-c3scnc3C)cc2)C(C)(C)C)cc1NC(=O)c1csc2ccccc12 [Example I-38] | –
< 100 nM | O=C1CCC(N2Cc3cc(C(=O)NCCCCCCCCCNC(=O)c4cc(NC(=O)c5nsc6ccccc56)c5n4CC(=O)N[C@@H]5c4cc(F)ccc4Cl)ccc3C2=O)C(=O)N1 (stereo partly shown) [Example I-106] | –
1000 to 10000 nM | O=C1CCC(N2Cc3cc(C#CCN4CCC(NC(=O)c5cnc(Nc6cc(F)ccc6Cl)c(NC(=O)c6csc7ccccc67)c5)CC4)ccc3C2=O)C(=O)N1 (stereo not shown) [Example I-84] | –
100 to 500 nM | Cc1cc(Br)c2oc(N3CCN(C(=O)CCCCCCCCCNC(=O)c4cnc(Nc5ccccc5C)c(NC(=O)c5csc6ccccc56)c4)CC3)cc(=O)c2c1 [Example I-82] | 10000 to 36000 nM
< 100 nM | O=C1CCC(N2Cc3cc(C(=O)NCCCCCCCCNC(=O)c4cc(NC(=O)c5cccc(C(F)(F)F)c5)c5c(c4)C(=O)N[C@H]5c4cc(F)ccc4Cl)ccc3C2=O)C(=O)N1 (stereo partly shown) [Example I-158] | –
< 100 nM | O=C1CCC(N2C(=O)c3ccc(NCCOCCOCCOCCOCCOCCOCCOCCOCCOCCOCCOCCOCCNC(=O)c4cc(NC(=O)c5cc(F)cc(C(F)(F)F)c5)c5c(c4)C(=O)N[C@H]5c4cc(F)ccc4Cl)cc3C2=O)C(=O)N1 (stereo partly shown) [Example I-156] | –
